# Data: patent US6737383B1, “Herbicidal oxadiazolidines” (priority 1999, dated 2004)
# What was measured:
# [1] = test system: morningglory; assay: Test B pre/postemergence morningglory; assay type: in vivo, Ipomoea hederacea
# How it was run: (§1)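 Test chemicals in a non-phytotoxic solvent mixture with surfactant were sprayed preemergence onto planted seeds and postemergence onto plants 2 to 18 cm tall (1- to 4-leaf stage). After twelve to sixteen days in a greenhouse, injury was visually rated against untreated controls from 0 (no effect) to 10 (complete control).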
# [2] = test system: surinam grass; assay: Test B pre/postemergence surinam grass; assay type: in vivo, Brachiaria decumbens
# How it was run: as §1
# [3] = test system: soybean; assay: Test B pre/postemergence soybean; assay type: in vivo, Glycine max
# How it was run: as §1
# [4] = test system: wheat; assay: Test B pre/postemergence wheat; assay type: in vivo, Triticum aestivum
# How it was run: as §1
# [5] = test system: purple nutsedge; assay: Test B pre/postemergence purple nutsedge; assay type: in vivo, Cyperus rotundus
# How it was run: as §1
# [6] = test system: cocklebur; assay: Test B pre/postemergence cocklebur; assay type: in vivo, Xanthium strumarium
# How it was run: as §1
# [7] = test system: pigweed; assay: Test B pre/postemergence pigweed; assay type: in vivo, Amaranthus retroflexus
# How it was run: as §1
# [8] = test system: rape; assay: Test B pre/postemergence rape; assay type: in vivo, Brassica napus
# How it was run: as §1
# [9] = test system: wild oat; assay: Test B pre/postemergence wild oat; assay type: in vivo, Avena fatua
# How it was run: as §1
# [10] = test system: giant foxtail; assay: Test B pre/postemergence giant foxtail; assay type: in vivo, Setaria faberii
# How it was run: as §1
# [11] = test system: corn; assay: Test B pre/postemergence corn; assay type: in vivo, Zea mays
# How it was run: as §1
# [12] = test system: bedstraw; assay: Test B pre/postemergence bedstraw; assay type: in vivo, Galium aparine; conditions: Preemergence
# How it was run: as §1
# [13] = test system: velvetleaf; assay: Test B pre/postemergence velvetleaf; assay type: in vivo, Abutilon theophrasti
# How it was run: as §1
# [14] = test system: sugar beet; assay: Test B pre/postemergence sugar beet; assay type: in vivo, Beta vulgaris
# How it was run: as §1
# [15] = test system: blackgrass; assay: Test B pre/postemergence blackgrass; assay type: in vivo, Alopecurus myosuroides
# How it was run: as §1
# [16] = test system: crabgrass; assay: Test B pre/postemergence crabgrass; assay type: in vivo, Digitaria sanguinalis
# How it was run: as §1
# [17] = Postemergence, Rate 62 g/ha, scale 0 to 10, 0 is no effect, 10 is complete control
# [18] = Postemergence, Rate 125 g/ha, scale of 0 to 10 where 0 is no effect and 10 is complete control
# [19] = Preemergence, Rate 125 g/ha, scale of 0 to 10 where 0 is no effect and 10 is complete control
# [20] = Preemergence, Rate 250 g/ha, scale 0 (no effect) to 10 (complete control)
# [21] = Rate 62 g/ha, Preemergence, scale 0 to 10
# [22] = Rate 250 g/ha, Postemergence, scale 0 to 10, 0 is no effect, 10 is complete control
# [23] = Rate 500 g/ha, Postemergence, scale 0 to 10, 0 is no effect, 10 is complete control
# [24] = Rate 500 g/ha, Preemergence, scale 0 to 10 (0 no effect, 10 complete control)
smiles,measurement,setting,value
COC1CCC(Cn2c(=O)on(C(=O)N(c3ccc(Cl)cc3)C(C)C)c2=O)=NO1 (stereo not drawn) [Compound 760],"Plant response rating, Morningglory",[1]; [17],3
same,Morningglory plant response rating,[1]; [18],3
same,"Plant response rating, Morningglory",[1]; [19],0
same,Morningglory plant response rating,[1]; [20],0
same,Morningglory plant response rating,[1]; [21],0
same,Morningglory plant response rating,[1]; [22],3
same,Morningglory plant response rating,[1]; [23],3
same,Morningglory plant response rating,[1]; [24],0
same,"Plant response rating, B. signalgrass",[2]; [17],0
same,B. signalgrass plant response rating,[2]; [18],0
same,B. signalgrass plant response rating,"[2]; Preemergence, Rate 62 g/ha, scale of 0 to 10 where 0 is no effect and 10 is complete control",2
same,"Plant response rating, B. signalgrass",[2]; [19],3
same,B. signalgrass plant response rating,[2]; [20],10
same,B. signalgrass plant response rating,[2]; [22],0
same,B. signalgrass plant response rating,[2]; [23],5
same,B. signalgrass plant response rating,[2]; [24],10
same,"Plant response rating, Soybean",[3]; [17],4
same,"Plant response rating, Soybean",[3]; [19],0
same,Soybean plant response rating,[3]; [20],0
same,Soybean plant response rating,[3]; [21],0
same,Soybean plant response rating,[3]; [22],4
same,Soybean plant response rating,[3]; [23],5
same,Soybean plant response rating,[3]; [24],0
same,"Plant response rating, Wheat",[4]; [17],0
same,"Plant response rating, Wheat",[4]; [19],0
same,Wheat plant response rating,[4]; [20],0
same,Wheat plant response rating,[4]; [21],0
same,Wheat plant response rating,[4]; [22],0
same,Wheat plant response rating,[4]; [23],0
same,Wheat plant response rating,[4]; [24],3
same,"Plant response rating, Nutsedge",[5]; [17],0
same,Nutsedge plant response rating,[5]; [18],0
same,"Plant response rating, Nutsedge",[5]; [19],0
same,Nutsedge plant response rating,[5]; [20],0
same,Nutsedge plant response rating,[5]; [21],0
same,Nutsedge plant response rating,[5]; [22],0
same,Nutsedge plant response rating,[5]; [23],0
same,Nutsedge plant response rating,[5]; [24],0
same,"Plant response rating, Cocklebur",[6]; [17],0
same,Cocklebur plant response rating,[6]; [18],0
same,Cocklebur plant response rating,[6]; [20],0
same,Cocklebur plant response rating,[6]; [21],0
same,Cocklebur plant response rating,[6]; [22],0
same,Cocklebur plant response rating,[6]; [23],1
same,Cocklebur plant response rating,[6]; [24],0
same,"Plant response rating, Redroot pigweed",[7]; [17],0
same,Redroot pigweed plant response rating,[7]; [18],0
same,"Plant response rating, Redroot pigweed",[7]; [19],7
same,Redroot pigweed plant response rating,[7]; [20],9
same,Redroot pigweed plant response rating,[7]; [21],7
same,Redroot pigweed plant response rating,[7]; [22],2
same,Redroot pigweed plant response rating,[7]; [23],3
same,Redroot pigweed plant response rating,[7]; [24],9
same,"Plant response rating, Rape",[8]; [17],2
same,Rape plant response rating,[8]; [18],1
same,"Plant response rating, Rape",[8]; [19],0
same,Rape plant response rating,[8]; [20],2
same,Rape plant response rating,[8]; [21],0
same,Rape plant response rating,[8]; [22],2
same,Rape plant response rating,[8]; [23],5
same,Rape plant response rating,[8]; [24],5
same,"Plant response rating, Wild oats",[9]; [17],0
same,"Plant response rating, Wild oats",[9]; [19],0
same,Wild oats plant response rating,[9]; [20],2
same,Wild oats plant response rating,[9]; [21],0
same,Wild oats plant response rating,[9]; [22],0
same,Wild oats plant response rating,[9]; [23],4
same,Wild oats plant response rating,[9]; [24],6
same,"Plant response rating, Giant foxtail",[10]; [17],0
same,Giant foxtail plant response rating,[10]; [18],7
same,"Plant response rating, Giant foxtail",[10]; [19],9
same,Giant foxtail plant response rating,[10]; [20],10
same,Giant foxtail plant response rating,[10]; [21],8
same,Giant foxtail plant response rating,[10]; [22],7
same,Giant foxtail plant response rating,[10]; [23],7
same,Giant foxtail plant response rating,[10]; [24],10
same,"Plant response rating, Corn",[11]; [17],0
same,Corn plant response rating,[11]; [18],0
same,"Plant response rating, Corn",[11]; [19],0
same,Corn plant response rating,[11]; [20],0
same,Corn plant response rating,[11]; [21],0
same,Corn plant response rating,[11]; [22],1
same,Corn plant response rating,[11]; [23],1
same,Corn plant response rating,[11]; [24],4
same,"Plant response rating, Bedstraw","[12]; Rate 125 g/ha, scale of 0 to 10 where 0 is no effect and 10 is complete control",0
same,Bedstraw plant response rating,"[12]; Rate 250 g/ha, scale 0 (no effect) to 10 (complete control)",0
same,Bedstraw plant response rating,"[12]; Rate 62 g/ha, scale 0 to 10",0
same,Bedstraw plant response rating,"[12]; Rate 500 g/ha, scale 0 to 10 (0 no effect, 10 complete control)",6
same,"Plant response rating, Velvetleaf",[13]; [17],0
same,"Plant response rating, Velvetleaf",[13]; [19],0
same,Velvetleaf plant response rating,[13]; [20],0
same,Velvetleaf plant response rating,[13]; [21],0
same,Velvetleaf plant response rating,[13]; [22],0
same,Velvetleaf plant response rating,[13]; [23],3
same,Velvetleaf plant response rating,[13]; [24],0
same,"Plant response rating, Sugarbeets",[14]; [17],0
same,"Plant response rating, Sugarbeets",[14]; [19],3
same,Sugarbeets plant response rating,[14]; [20],3
same,Sugarbeets plant response rating,[14]; [21],3
same,Sugarbeets plant response rating,[14]; [22],0
same,Sugarbeets plant response rating,[14]; [23],0
same,Sugarbeets plant response rating,[14]; [24],6
same,"Plant response rating, Blackgrass",[15]; [17],0
same,Blackgrass plant response rating,[15]; [18],0
same,"Plant response rating, Blackgrass",[15]; [19],4
same,Blackgrass plant response rating,[15]; [20],6
same,Blackgrass plant response rating,[15]; [21],0
same,Blackgrass plant response rating,[15]; [22],0
same,Blackgrass plant response rating,[15]; [23],3
same,Blackgrass plant response rating,[15]; [24],9
same,"Plant response rating, Crabgrass",[16]; [17],5
same,Crabgrass plant response rating,[16]; [18],6
same,"Plant response rating, Crabgrass",[16]; [19],7
same,Crabgrass plant response rating,[16]; [20],10
same,Crabgrass plant response rating,[16]; [21],2
same,Crabgrass plant response rating,[16]; [22],9
same,Crabgrass plant response rating,[16]; [24],10
